Where two headings read alike, the source gives them in different places.
Target: Ba/F3 V617F cells (Homo sapiens, UniProt O60674, V617F, cells depend on it)
Assay: Proliferation assay (Cell Titer-Glo, 72 h) utilizing Ba/F3 V617F cells
Type: cell-based, mouse
Settings: Ba/F3 V617F cells, proliferation
Summary of the method: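 Readout is CellTiter-Glo luminescence after 72 h at 37 °C, giving IC50. Cells: Ba/F3 V617F, 1×10^5 cells/mL in RPMI with 10% FBS, treated in duplicate with 3-fold dilution series made from 5 mM DMSO stock, 1:250 in 5% FBS medium, added at 2×.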

[1] = level of activity to inhibit JAK2, read-out: IC50 (the source's name)
[2] = level of activity given as class symbol, read-out: IC50 (the source's name)

Sequence of Ba/F3 V617F cells (O60674 whole entry V617F): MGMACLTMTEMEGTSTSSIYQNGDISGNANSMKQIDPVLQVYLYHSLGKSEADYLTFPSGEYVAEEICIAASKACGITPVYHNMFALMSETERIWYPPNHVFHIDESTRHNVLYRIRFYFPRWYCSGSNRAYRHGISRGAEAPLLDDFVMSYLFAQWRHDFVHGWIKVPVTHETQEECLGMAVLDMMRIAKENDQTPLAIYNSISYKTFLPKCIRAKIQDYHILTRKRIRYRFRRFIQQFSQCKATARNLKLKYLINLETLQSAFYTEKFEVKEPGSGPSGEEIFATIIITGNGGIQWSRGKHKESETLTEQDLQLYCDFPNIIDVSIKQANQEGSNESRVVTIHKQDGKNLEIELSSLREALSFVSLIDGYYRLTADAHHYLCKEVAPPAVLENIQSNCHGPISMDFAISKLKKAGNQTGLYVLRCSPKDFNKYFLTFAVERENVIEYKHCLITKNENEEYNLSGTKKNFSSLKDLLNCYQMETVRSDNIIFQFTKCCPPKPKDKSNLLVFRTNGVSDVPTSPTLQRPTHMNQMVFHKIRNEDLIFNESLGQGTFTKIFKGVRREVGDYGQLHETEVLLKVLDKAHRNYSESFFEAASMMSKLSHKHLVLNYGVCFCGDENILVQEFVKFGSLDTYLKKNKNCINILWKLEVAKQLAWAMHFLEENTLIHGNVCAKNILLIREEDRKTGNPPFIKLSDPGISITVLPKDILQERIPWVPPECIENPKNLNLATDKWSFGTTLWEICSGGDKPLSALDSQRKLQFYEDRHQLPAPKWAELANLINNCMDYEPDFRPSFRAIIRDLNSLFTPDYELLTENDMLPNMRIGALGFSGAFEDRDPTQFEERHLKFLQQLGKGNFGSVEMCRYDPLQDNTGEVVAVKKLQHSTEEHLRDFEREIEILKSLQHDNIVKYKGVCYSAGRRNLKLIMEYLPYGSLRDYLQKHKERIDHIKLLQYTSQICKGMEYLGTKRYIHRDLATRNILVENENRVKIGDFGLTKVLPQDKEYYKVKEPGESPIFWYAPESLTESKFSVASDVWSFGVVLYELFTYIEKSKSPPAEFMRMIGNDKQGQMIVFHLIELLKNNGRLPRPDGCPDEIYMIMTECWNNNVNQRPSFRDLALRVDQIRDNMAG

SMILES | GI50 [1] [nM] | GI50 [2] [nM]
CN1CCOc2cc(-c3ccnc(Nc4ccc(N5C[C@@H]6C[C@H]5CN6C)cc4)n3)cnc21 [compound 185, 4-(4-methyl-3,4-dihydro-2H-pyrido[3,2-b][1,4]oxazin-7-yl)-N-(4-((1S,4S)-5-methyl-2,5-diazabicyclo[2.2.1]heptan-2-yl)phenyl)pyrimidin-2-amine] | < 1000 | 
CCOCCCNc1ccc(-c2ccnc(Nc3ccc(N4C[C@@H]5C[C@H]4CN5C)c(C)c3)n2)cn1 [compound 186, 4-(6-(3-ethoxypropyl)aminopyridin-3-yl)-N-(3-methyl-4-((1S,4S)-5-methyl-2,5-diazabicyclo[2.2.1]heptan-2-yl)phenyl)pyrimidin-2-amine] | < 1000 | 
Cc1cc(Nc2nccc(-c3ccc(N4CCOC(CN(C)C)C4)nc3)n2)ccc1N1C[C@@H]2C[C@H]1CN2C (stereo partly drawn) [compound 189, 4-(6-(2-(dimethylamino)methylmorpholin-4-yl)pyridin-3-yl)-N-(3-methyl-4-((1S,4S)-5-methyl-2,5-diazabicyclo[2.2.1]heptan-2-yl)phenyl)pyrimidin-2-amine] |  | < 1000
Cc1cc(Nc2nccc(-c3ccc(N4CCCCC4)nc3)n2)ccc1N1C[C@@H]2C[C@H]1CN2C [compound 190, 4-(6-(piperidin-1-yl)pyridin-3-yl)-N-(3-methyl-4-((1S,4S)-5-methyl-2,5-diazabicyclo[2.2.1]heptan-2-yl)phenyl)pyrimidin-2-amine] |  | < 1000
Cc1cc(Nc2nccc(-c3ccc(N4CCCC(C(N)=O)C4)nc3)n2)ccc1N1C[C@@H]2C[C@H]1CN2C (stereo partly drawn) [compound 191, 4-(6-(3-(aminocarbonyl)piperidin-1-yl)pyridin-3-yl)-N-(3-methyl-4-((1S,4S)-5-methyl-2,5-diazabicyclo[2.2.1]heptan-2-yl)phenyl)pyrimidin-2-amine] |  | 1000 to 10000
Cc1cc(Nc2nccc(-c3cnc4c(c3)OCCN4C)n2)ccc1N1C[C@@H]2C[C@H]1CN2S(C)(=O)=O [compound 193, 4-(4-methyl-3,4-dihydro-2H-pyrido[3,2-b][1,4]oxazin-7-yl)-N-(3-methyl-4-((1S,4S)-5-methylsulfonyl-2,5-diazabicyclo[2.2.1]heptan-2-yl)phenyl)pyrimidin-2-amine] |  | < 1000
Cc1cc(Nc2nccc(-c3ccc(N4CCOCC4)nc3)n2)ccc1N1C[C@@H]2C[C@H]1CO2 [compound 194, 4-(6-(morpholin-4-yl)pyridin-3-yl)-N-(3-methyl-4-((1S,4S)-5-oxa-2-azabicyclo[2.2.1]heptan-2-yl)phenyl)pyrimidin-2-amine] |  | < 1000
Cc1cc(Nc2nccc(-c3cnc4c(c3)OCCN4C)n2)ccc1N1C[C@@H]2C[C@H]1CO2 [compound 195, 4-(4-methyl-3,4-dihydro-2H-pyrido[3,2-b][1,4]oxazin-7-yl)-N-(3-methyl-4-((1S,4S)-5-oxa-2-azabicyclo[2.2.1]heptan-2-yl)phenyl)pyrimidin-2-amine] |  | < 1000
CCC(=O)N1C[C@@H]2C[C@H]1CN2c1ccc(Nc2nccc(-c3ccc(NCCN4CCOCC4)nc3)n2)cc1C [compound 197, 4-(6-(2-(morpholin-4-yl)ethyl)aminopyridin-3-yl)-N-(3-methyl-4-((1S,4S)-5-ethylcarbonyl-2,5-diazabicyclo[2.2.1]heptan-2-yl)phenyl)pyrimidin-2-amine] |  | 1000 to 10000
Cc1cc(Nc2nccc(-c3ccc(N4CCOCC4)nc3)n2)ccc1N1C[C@@H]2C[C@H]1CN2C(=N)N [compound 199, 4-(6-(morpholin-4-yl)pyridin-3-yl)-N-(3-methyl-4-((1S,4S)-5-amidino-2,5-diazabicyclo[2.2.1]heptan-2-yl)phenyl)pyrimidin-2-amine] |  | 1000 to 10000
CCOCCCNc1ccc(-c2ccnc(Nc3ccc(N4C[C@@H]5C[C@H]4CO5)c(C)c3)n2)cn1 [compound 200, 4-(6-(3-ethoxypropyl)aminopyridin-3-yl)-N-(3-methyl-4-((1S,4S)-5-oxa-2-azabicyclo[2.2.1]heptan-2-yl)phenyl)pyrimidin-2-amine] |  | < 1000
Cc1cc(Nc2nccc(-c3ccc(NCCCN(C)C)nc3)n2)ccc1N1C[C@@H]2C[C@H]1CO2 [compound 203, 4-(6-(3-dimethylamino)propylaminopyridin-3-yl)-N-(3-methyl-4-((1S,4S)-5-oxa-2-azabicyclo[2.2.1]heptan-2-yl)phenyl)pyrimidin-2-amine] |  | < 1000
Cc1cc(Nc2nccc(-c3ccc(N4CCCOCC4)nc3)n2)ccc1N1C[C@@H]2C[C@H]1CO2 [compound 204, 4-(6-(1,4-oxazepan-4-yl)pyridin-3-yl)-N-(3-methyl-4-((1S,4S)-5-oxa-2-azabicyclo[2.2.1]heptan-2-yl)phenyl)pyrimidin-2-amine] |  | < 1000
Cc1cc(Nc2nccc(-c3ccc(N4CCOCC4)nc3)n2)ccc1N1C[C@@H]2C[C@H]1CN2CC(C)C [compound 205, 4-(6-(morpholin-4-yl)pyridin-3-yl)-N-(3-methyl-4-((1S,4S)-5-isobutyl-2,5-diazabicyclo[2.2.1]heptan-2-yl)phenyl)pyrimidin-2-amine] |  | < 1000

The remaining lines, values ahead:

GI50 [1] [nM] | GI50 [2] [nM] | SMILES
 | < 1000 | Cc1cc(Nc2nccc(-c3ccc(N4C[C@@H](C)O[C@@H](C)C4)nc3)n2)ccc1N1C[C@@H]2C[C@H]1CN2C [compound 187, 4-(6-(cis-2,6-dimethylmorpholin-4-yl)pyridin-3-yl)-N-(3-methyl-4-((1S,4S)-5-methyl-2,5-diazabicyclo[2.2.1]heptan-2-yl)phenyl)pyrimidin-2-amine]
 | < 1000 | CCCNc1ccc(-c2ccnc(Nc3ccc(N4C[C@@H]5C[C@H]4CN5C)c(C)c3)n2)cn1 [compound 188, 4-(6-(propylamino)pyridin-3-yl)-N-(3-methyl-4-((1S,4S)-5-methyl-2,5-diazabicyclo[2.2.1]heptan-2-yl)phenyl)pyrimidin-2-amine]
 | < 1000 | Cc1cc(Nc2nccc(-c3ccc(N4CCOCC4)nc3)n2)ccc1N1C[C@@H]2C[C@H]1CN2S(C)(=O)=O [compound 192, 4-(6-(morpholin-4-yl)pyridin-3-yl)-N-(3-methyl-4-((1S,4S)-5-methylsulfonyl-2,5-diazabicyclo[2.2.1]heptan-2-yl)phenyl)pyrimidin-2-amine]
 | < 1000 | CCC(=O)N1C[C@@H]2C[C@H]1CN2c1ccc(Nc2nccc(-c3ccc(N4CCOCC4)nc3)n2)cc1C [compound 196, 4-(6-(morpholin-4-yl)pyridin-3-yl)-N-(3-methyl-4-((1S,4S)-5-ethylcarbonyl-2,5-diazabicyclo[2.2.1]heptan-2-yl)phenyl)pyrimidin-2-amine]
 | 1000 to 10000 | Cc1cc(Nc2nccc(-c3ccc(NCCCN(C)C)nc3)n2)ccc1N1C[C@@H]2C[C@H]1CN2C [compound 198, 4-(6-(3-dimethylamino)propylaminopyridin-3-yl)-N-(3-methyl-4-((1S,4S)-5-methyl-2,5-diazabicyclo[2.2.1]heptan-2-yl)phenyl)pyrimidin-2-amine]
 | < 1000 | CCCNc1ccc(-c2ccnc(Nc3ccc(N4C[C@@H]5C[C@H]4CO5)c(C)c3)n2)cn1 [compound 202, 4-(6-(propylamino)pyridin-3-yl)-N-(3-methyl-4-((1S,4S)-5-oxa-2-azabicyclo[2.2.1]heptan-2-yl)phenyl)pyrimidin-2-amine]
 | < 1000 | Cc1cc(Nc2nccc(-c3ccc(N4CCCOCC4)nc3)n2)ccc1N1C[C@@H]2C[C@H]1CN2C [compound 206, 4-(6-(1,4-oxazepan-4-yl)pyridin-3-yl)-N-(3-methyl-4-((1S,4S)-5-methyl-2,5-diazabicyclo[2.2.1]heptan-2-yl)phenyl)pyrimidin-2-amine]
